Source: US20250136652A1, “FUSION PROTEIN FOR TARGETING RECOMBINANT PROTEINS FOR DEGRADATION” (The Regents of the University of California, priority 2022, published 2025)

Assays:
[1] = tested on: 4-1BB variant second-generation ('BBz') CARs that target CD19 or HER2; assay: Surface CAR expression in Jurkat T cells by anti-myc antibody stain and flow cytometry; assay type: cell-based; settings: 72 hours after removal of lentivirus
Protocol: FIG. 4A: Tethering of STUD to plasma membrane allows for functional knockdown for second-generation chimeric antigen receptors (CAR). Cartoon diagram of membrane tethered STUD (‘memSTUD’) and non-functional (‘NF’) control relative to original ‘soluble’ STUD design. The DNA cartoon represents the plasmid used in experiments done in this panel. (RRRG (SEQ ID NO:32); TRGN (SEQ ID NO:50)).
FIG. 4B: Plasmid diagramed in FIG. 4A transduced into Jurkat T cells and CAR fluorescence measured 72 hours removal of lentivirus. CAR fluorescence is measured by antibody stain for myc tag fused to CAR extracellular domain. […] Dots represent three independent experiments and errors bars show standard deviation.
Increasing the local concentration of the STUD at the membrane by fusion to a membrane localization domain was tested. […] The surface CAR expression by fluorescence of this antibody stain was measured by flow cytometry.
Membrane targeting STUD: Membrane targeting cells were introduced by lentiviral transduction of two plasmids. […] Cells were then analyzed by flow cytometry. Cells were gated on expression of co-transduction fluorescent proteins (BFP/mCherry) and STUD efficacy was measured by knockdown of CAR/SynNotch. CAR and SynNotch expression was measured by antibody staining for a peptide tag fused to the extracellular domain of the CAR/SynNotch. […]

[2] = tested on: green fluorescent protein (GFP) target; assay: STUD-induced degradation of GFP target in Jurkat T cells, flow cytometry; assay type: cell-based; settings: GFP normalized by tagBFP, 72 hours following removal of lentivirus
Protocol: Jurkat cells were lentivirally transduced with two plasmids. The first encodes a STUD, or control with a mutated degron, and a mCherry transduction marker separated by a 2A element and the second encodes GFP target protein and a BFP transduction marker separated by a 2A element. In the case of the SynZip STUD, the GFP target is fused to a heterodimeric SynZip protein complementary to the binding domain on the STUD. These transduced cells are analyzed for fluorescence by flow cytometry […] after removal of virus. Cells are first gated on these transduction markers to isolate relevant populations. Then, normalized GFP fluorescence is calculated by normalizing each cell's GFP fluorescence, as obtained by flow cytometry, by its BFP fluorescence. Then, the median normalized GFP fluorescence of each flow cytometry distribution is calculated and shown in the bar plot. Each dot represents the mean of the median normalized GFP fluorescence of three technical replicates in three independent experiments. […]
Either the SynZip STUD and the antiGFP nanobody STUD in Jurkat T cells alongside a plasmid encoding either GFP fused to a complementary SynZip or GFP alone, respectively (FIG. 2B) were lentivirally transduced. 72 hours following removal of lentivirus, we assay for GFP fluorescence by flow cytometry. […] Representative histograms of unnormalized GFP fluorescence are also shown for reference. […]

Substance: SynZip STUD: Fusion protein SEQ ID NO: 413: lysine-free modified synZIP18 heterodimerization domain, flexible linker, C-terminal RRRG degron; 55 amino acids (SIAATLENDLARLENENARLERDIANLERDLARLEREEAYFGSGSGSGSGSRRRG)
- degradation of CAR (surface CAR expression) [1]: inefficiently
- fold change of median normalized GFP fluorescence [2]: approximately 42 fold
